{
  "source": "patent US20140162942A1",
  "about": "“INHIBITION OF CYP3A DRUG METABOLISM” (priority 2010, published 2014)",
  "key": {"CYP2B6": {"target": "T1, CYP2B6 (Homo sapiens, UniProt P20813)", "T1 construct": "Pooled human liver microsomes (from sixteen individuals) were used as the source of enzymes; tissue XenoTech, LLC; host or cells: human liver microsomes, pool of sixteen donors", "T1 sequence (P20813 1-491)": "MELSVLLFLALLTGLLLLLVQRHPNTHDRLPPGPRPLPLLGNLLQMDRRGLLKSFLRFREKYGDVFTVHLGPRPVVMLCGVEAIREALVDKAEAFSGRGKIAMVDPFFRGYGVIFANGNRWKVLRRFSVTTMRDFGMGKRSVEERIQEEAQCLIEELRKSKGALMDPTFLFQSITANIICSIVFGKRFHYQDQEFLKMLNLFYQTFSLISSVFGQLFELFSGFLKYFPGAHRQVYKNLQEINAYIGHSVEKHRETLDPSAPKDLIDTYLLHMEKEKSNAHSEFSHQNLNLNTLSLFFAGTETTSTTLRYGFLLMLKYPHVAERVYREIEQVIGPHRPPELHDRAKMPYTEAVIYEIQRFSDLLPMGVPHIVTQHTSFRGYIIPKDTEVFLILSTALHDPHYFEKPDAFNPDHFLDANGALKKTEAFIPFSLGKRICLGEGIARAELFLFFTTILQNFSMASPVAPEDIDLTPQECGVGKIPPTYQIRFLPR", "experiment": "CYP2B6 inhibition, bupropion hydroxylation in human liver microsomes", "assay_type": "in vitro ADME", "conditions": "for Potential for Time-Dep. Inhibition: comparison with and without 30-minute pre-incubation; for inhibition at 5 min, 100 µM: human, pH 7.4, probe bupropion (hydroxylation)", "method": "The basis for many of the following incubation conditions is described in the following references: Madan, et al., 2002,^(1) Huang, 2004,^(3) Ogilvie, et al., 2006,^(6) Pearce, et al., 1996,^(7) Tucker, et al., 2001,^(4) and Walsky and Obach, 2004.^(5) In general, incubations were conducted at approximately 37° C. in 400-μL incubation mixtures (target pH 7.4) containing high purity water, potassium phosphate buffer (50 mM), MgCl2 (3 mM), EDTA (1 mM), an NADPH-generating system [always the mixture of the following: NADP (1 mM), glucose-6-phosphate (5 mM), glucose-6-phosphate dehydrogenase (1 Unit/mL)], and marker substrate at the final concentrations indicated. Pooled human liver microsomes (from sixteen individuals) were used as the source of enzymes (Section 1.3.1.2). The concentrations of marker substrates were based on the Km and Vmax data that were determined previously (data not shown).\nDue to the possibility that boceprevir may bind to microsomal protein or lipids, an attempt was made to design these experiments such that, in as many cases as possible, the microsomal protein, incubation time, and phosphate buffer concentration were 0.1 mg/mL, 5 minutes and 50 mM, respectively, for assays performed with human liver microsomes (Table 1). […] Since it is not imperative that the concentration of marker substrates be exactly equal to Km, the marker substrate concentrations were rounded up or down, as applicable, to simplify the experimental design (data not shown). […] Thus, the final incubation concentration of phenacetin was 60 μM (Table 1).\nThe ability of boceprevir to inhibit the CYP enzymes listed in Section 1.2.1 was investigated with a pool of sixteen individual human liver microsomal samples at the concentrations indicated in Table 1. Aliquots of the stock and/or working solutions of boceprevir were manually added to buffer mixtures containing the components described in Section 1.3.21. Incubation mixtures were prepared in bulk to obviate the need for directly pipetting very small volumes (i.e., 1 μL or less). Incubations containing no boceprevir (0 μM) contained the vehicle used to dissolve boceprevir (i.e., 1% methanol).\nThe Tecan liquid handling system conducted all remaining incubation steps, with the exception of the centrifugation. Aliquots of the buffer mixtures were then automatically added to 96-well plates at the appropriate locations in duplicate. Aliquots of a substrate working solution were added to the 96-well plates, prior to initiating reactions, to give the final concentrations indicated in Table 1. Reactions were initiated with the addition of an aliquot of an NADPH-generating system. Reactions were automatically terminated at approximately 5 minutes, by the addition of the appropriate internal standard (Table 5) and stop reagent; acetonitrile. Precipitated protein was removed by centrifugation (920 g for 10 minutes at 10° C.). Standards and quality control samples were similarly prepared with the addition of authentic metabolite standards.\nTo examine its ability to act as a time-dependent inhibitor, boceprevir (at the same concentrations used to evaluate direct inhibition) was pre-incubated at 37±1° C., in duplicate, with human liver microsomes and an NADPH-generating system for approximately 30 minutes. This pre-incubation allowed for the generation of intermediates that could inhibit human CYP enzymes. The pre-incubations were initiated with the addition of an aliquot of an NADPH-generating system. […] Reactions were automatically terminated, at approximately 5 minutes, by the addition of the appropriate internal standard (Table 5) and stop reagent; acetonitrile. Precipitated protein was removed by centrifugation (920 g for 10 minutes at 10° C.). Incubations containing no boceprevir (0 μM) and incubations that contained boceprevir but were not pre-incubated, served as negative controls."}, "CYP3A4/5": {"system": "CYP3A4/5", "experiment": "Metabolite inhibitory complex (MIC) formation, human liver microsomes with high CYP3A4/5 activity", "assay_type": "in vitro ADME", "conditions": "3 μM, scans 380-520 nm for 15 minutes", "method": "In an attempt to determine the mechanism in which boceprevir inactivated CYP3A4/5, an experiment was conducted to determine if boceprevir formed a spectrophotometrically detectable metabolite inhibitory complex with cytochrome P450 (i.e., peaks at approximately 452 nm).\nIn this experiment (summarized in Table 4), an individual human liver microsomal sample containing high levels of CYP3A4/5 activity (final protein concentration of 1 mg/mL, 1.7 nmol P450/mg protein) was added to the sample and reference cuvettes in a buffer mixture consisting of potassium phosphate (50 mM), and MgCl2 (3 mM) for a final volume of 980 μL. Baseline scans from 380 to 520 nm were recorded on a Varian Cary 100 BIO UV/Vis dual beam spectrophotometer. Boceprevir was then added to the sample cuvette in 10 μL of methanol for a final incubation concentration of 3 μM. A corresponding volume of the solvent (10 μL of methanol), used to dissolve boceprevir, was added to the reference. The reactions were initiated with 10 μL of β-NADPH added to both cuvettes to give a final volume of 1 mL. Continuous scans were conducted every minute for 15 minutes after the addition of β-NADPH. All scans were conducted at approximately 37° C. […]"}},
  "note": "Read-outs that look alike come from different tables or passages of the source.",
  "data": [
    {"smiles": "CC(C)(C)NC(=O)NC(C(=O)N1CC2C([C@H]1C(=O)NC(CC1CCC1)C(=O)C(N)=O)C2(C)C)C(C)(C)C", "note": "(stereo partly drawn) [Boceprevir, (1R,2S,5S)—N-[(2Ξ)-4-amino-1-cyclobutyl-3,4-dioxobutan-2-yl]-3-{(2S)-2-[(tert-butylcarbamoyl)amino]-3,3-dimethylbutanoyl}-6,6-dimethyl-3-azabicyclo[3.1.0]hexane-2-carboxamide]", "values": [
      {"measurement": "Potential for Time-Dep. Inhibition", "setting": "CYP2B6", "result": "little or no"},
      {"measurement": "Potential for Time-Dep. Inhibition", "setting": "CYP2B6; listed as boceprevir", "result": "no discernable time-dependent inhibition"},
      {"measurement": "IC50", "setting": "CYP2B6; direct inhibition, zero-minute pre-incubation, pooled human liver microsomes", "result": "> 100", "unit": "µM"},
      {"measurement": "inhibition at 5 min, 100 µM", "setting": "CYP2B6; pooled human liver microsomes, direct inhibition, zero-minute pre-incubation, read-out: Max. Inhib. at 100 μM", "result": 2.3, "unit": "%"},
      {"measurement": "inhibition at 5 min, 100 µM", "setting": "CYP2B6; pooled human liver microsomes, time-dependent inhibition, 30-minute pre-incubation, read-out: Maximum Inhibition at 100 μM", "result": 6.9, "unit": "%"},
      {"measurement": "IC50", "setting": "CYP2B6; time-dependent inhibition, 30-minute pre-incubation", "result": "> 100", "unit": "µM"},
      {"measurement": "Formation of a spectrally visible metabolite inhibitory complex (MIC)", "setting": "CYP3A4/5", "result": "did not appear to form a spectrally visible MIC"}
    ]}
  ]
}
